This note sets out measurements from patent EP4417190A1, “CYCLIC PEPTIDES WITH ANTI-AGING EFFICACY” (Lipotrue, S.L., priority 2023, dated 2024).

The subject of one data set is TGFβ3. Description: qPCR TGFβ3 expression in HDF treated with conditioned media from peptide-treated keratinocytes. The class given is cell-based, human. Here is the method: (§1) For TGFβ3 gene expression assessment, HEKa cells were seeded in 24-well plate at a density of […] and incubated at 37 °C in a humidified atmosphere with 5% CO2. Next day, cell culture media was replaced by fresh media containing 0.0025 or 0.01 mg/mL of cycled peptide B. In parallel, HDF cells were seeded on culture plates with or without coverslips (for immunofluorescence or qPCR, respectively) and incubated for 24 h.
(§2) Conditioned media from HEKa cells after 48 hours of treatment was then transferred to HDF culture plates. Cells were maintained in culture for additional 24h (for qPCR) or for 4 days (for collagen I immunostaining).
For qPCR, cells were lysed, RNA extracted, and gene expression for TGFβ3 target was obtained as indicated in the previous examples.
For orientation: Quantitative PCR measures a nucleic acid by following its amplification.

The subject of a further data set is calreticulin (CALR). Description: Calreticulin immunofluorescence quantification in HEKa. Conditions: 0.005 mg/mL, 24 h. The class given is cell-based, human. Here is the method: The effect of the cycled peptide on the expression of calreticulin (CALR) in human epidermal keratinocytes from adult (HEKa) was analyzed through fluorescence microscopy evaluation.
HEKa cells were cultured on coverslips in Dermal Cell Basal Medium (DCBM) at a density of 50.000 cell/well and incubated at 37 °C in a humidified atmosphere with 5% CO2. When cell confluence was around 80%, cells were treated with cycled peptide B at 0.005 mg/mL for 24 h. After treatment, samples were washed twice with PBS, fixed with 4% formaldehyde and permeabilized with Triton X-100 0.2%. Next, samples were blocked for 1 hour with PBS/BSA 5%, in order to avoid nonspecific antibody binding. […]
Images were analyzed using Image J software. Shortly, threshold was adjusted to select CALR staining and mean fluorescent was measured. The number of cells was counted using the DAPI staining. […] Finally, all data was normalized as follows to obtain the % of CALR compared to untreated cells (Basal): % vs Basal = (fluorescence per cell in treated samples)/(fluorescence per cell in untreated samples) × 100 [formula]
Statistical data analysis was performed using Student t-test by comparison of % fluorescence from peptide B treated samples vs. untreated samples, (*, p < 0.05; **, p < 0.01 and ***, p < 0.001).

Data set [1] in a line: MTT assay, toxicity on HEKa cells. The class given is cell-based. Conditions: human, normalized to non-treated cells, read-out: Cell viability. As to the method: Toxicity of cycled peptides A and B was analyzed on human dermal fibroblasts (HDFa) and adult human epidermal keratinocytes HEKa cells by MTT assay. A stock solution of the peptide was prepared in distilled water at 25 mg/mL. This stock solution was further diluted to obtain the final working concentrations (0.001, 0.005, 0.01, 0.05, 0.1 and 0.5 mg/mL) in the corresponding culture medium. Untreated cells were used as negative control samples (Basal).
Briefly, HEKa and HDFa cells were seeded in 96-well plates at a concentration of 1×10^5 cells/mL in a final volume of 200 µL of medium (20,000 cells/well). HEKa cells were incubated in Dermal Cell Basal Medium supplemented with the Keratinocytes Growth Kit; and HDFa cells were cultured in Medium 106 supplemented with 2% of LSGS. Cells were incubated at 37°C, 5% CO2 and saturated humidity.
After 24 h of incubation, cells were treated with different concentrations of each peptide (0.001, 0.005, 0.01, 0.05, 0.1 and 0.5 mg/mL) in triplicates, for MTT evaluation. After 24 h of treatment with the peptide, medium was completely removed, and 100 µL of 0.5 mg/mL MTT solution in supplemented medium were added to each well and cells were incubated at 37°C for 3 h. After incubating with MTT, the medium of each well was aspirated and 150 µL of DMSO were added in order to solubilise the formazan crystals formed. The plates were placed on a shaker for 5 minutes for complete solubilisation of the crystals and then the absorbance at 570 nm of each well was determined, using the microplate reader Multiskan FC, which is directly proportional to the number of living cells in culture.
Absorbance values were normalized using the data obtained for non-treated cells (control), obtaining the % of viability shown in Tables 1 and 2. Each condition was performed in triplicate (n=3) in 3 independent experiments (N=3).
Concentrations of peptide for which viability is above 80% are considered safe for efficacy testing. On the contrary, concentrations for which viability goes below 80% are considered potentially toxic and are not used for efficacy testing purposes. Table 1: Toxicity of cycled peptides on HDFa cells.
Background: Formazan colour is commonly taken as a measure of viable cells.

In the next data set the test system is TGFBR3. As to the kind of experiment: RT-qPCR expression of aging-related gene TGFBR3 in HEKa. The class given is cell-based, human. Conditions: 0.01 mg/mL, 24 h.
For the next data set, the system named is Collagen I (COL1). As to the kind of experiment: Collagen I immunostaining in HDF treated with conditioned media from peptide-treated keratinocytes. The class given is cell-based, human. Conditions: 4 days of treatment with conditioned medium from peptide-treated keratinocytes (Figure 8). As to the method: as §1, §2
For the evaluation of collagen I (COLI) synthesis by immunostaining, HDF cells treated with HEKa conditioned media (as explained above) were washed twice with PBS, fixed with 4% formaldehyde and permeabilized with Triton X-100 0.2%. Next, samples were blocked for 1 hour with PBS/BSA 5%, in order to avoid nonspecific antibody binding. For collagen I staining, samples were incubated for 2 hours with Monoclonal Anti-Collagen, Type I antibody diluted 1:100 in PBS/BSA 1%, at room temperature. […] Images were analyzed using Image J software as mentioned above.

Read-outs that look alike come from different tables or passages of the source.

Experimental for TGFBR3: Then, cells were lysed, and RNA was extracted (RNeasy mini kit, Qiagen). Purified RNAs were retro-transcribed (High-capacity cDNA reverse transcription kit, Applied Biosystems). RT-qPCR was performed with the panel of TaqMan assay probes (Thermo Fisher Scientific) using StepOne plus Real time PCR instrument. […] The obtained data were analyzed using the ΔΔCt method, which provides the target gene expression values as fold changes in the treated sample compared with an untreated basal sample. Both samples were normalized with the relative expression of the housekeeping gene GAPDH.

As to `CC(C)C[C@@H]1NC(=O)[C@H](C)NC(=O)[C@H](Cc2c[nH]cn2)NC(=O)[C@H](Cc2c[nH]c3ccccc23)NC(=O)[C@H](Cc2ccccc2)NC(=O)[C@H](CCCNC(=N)N)NC1=O` [Peptide B, cyclo-Phe-Trp- His- Ala-Leu-Arg], the “expression of TGFβ3 over the basal expression in keratinocyte conditioned media (KCM)” value stood at 1.35 fold in the data set with TGFβ3 (24 h with conditioned media from HEKa treated 48 hours with 0.0025 mg/mL) and 1.60 fold in the data set with TGFβ3 (24 h with conditioned media from HEKa treated 48 hours with 0.01 mg/mL). The “% Mean (CALR fluorescence per cell, % vs Basal)” value in the data set on calreticulin (CALR) was found to be 179.45%. In the data set on calreticulin (CALR), the “increased CALR levels when compared with untreated cells” value is “up to 79%”. The viability (in general, a read-out of living cells in per cent, often relative to untreated cells) at 24 h in data set [1] (0.001 mg/mL peptide) was 102%; in data set [1] (0.005 mg/mL peptide), 103%; in data set [1] (0.01 mg/mL peptide), 107%; in data set [1] (0.05 mg/mL peptide) it was 91.4%; in data set [1] (0.1 mg/mL peptide), 85.8%; in data set [1] (0.5 mg/mL peptide), 61.8%. Moreover, the “Fold change vs. Basal” value in the data set on TGFBR3 was found to be 1.23. Also, the Mean normalized expression in the data set on TGFBR3 (normalized to GAPDH) came to 2.54E-02. For the same compound, the “Collagen I (COL1) levels” value with Collagen I (COL1) is on record as “significantly increased”.
